Measured values as given in patent US12655116B2, “Substituted isophthalic acid diamides” (Bayer Aktiengesellschaft, priority 2020, dated 2026).

Assays:
ABUTH [1] = assay: Pre-emergence herbicidal action against ABUTH; type: in vivo, Abutilon theophrasti; details: Abutilon theophrasti, 504 h
Summary of the method: (§1)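 Herbicidal effect was assessed 3 weeks after treatment by visual comparison with untreated controls, 100% denoting dead plants. Aqueous WP or EC preparations had been applied at 600 to 800 l/ha with 0.2% wetting agent to the soil covering freshly sown seeds.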

ALOMY [2] = assay: Pre-emergence herbicidal action against ALOMY; type: in vivo, Alopecurus myosuroides; details: Alopecurus myosuroides, 504 h; 80 g/ha, pre-emergence, scored visually after 3 weeks vs untreated controls (100% = plants have died, 0% = like control plants)
Summary of the method: as §1

AMARE [3] = assay: Pre-emergence herbicidal action against AMARE; type: in vivo, Amaranthus retroflexus; details: Amaranthus retroflexus, 504 h, scored visually after 3 weeks vs untreated controls, 100% = plants have died, 0% = like control plants
Summary of the method: as §1

AVEFA [4] = assay: Pre-emergence herbicidal action against AVEFA; type: in vivo, Avena fatua; details: Avena fatua, 504 h; 80 g/ha, pre-emergence
Summary of the method: as §1

ECHCG [5] = assay: Pre-emergence herbicidal action against ECHCG; type: in vivo, Echinochloa crus-galli; details: Echinochloa crus-galli, 504 h, 80 g/ha
Summary of the method: as §1

LOLRI = assay: Pre-emergence herbicidal action against LOLRI; type: in vivo, Lolium rigidum; details: Lolium rigidum, 504 h, 80 g/ha
Summary of the method: as §1

MATIN [6] = assay: Pre-emergence herbicidal action against MATIN; type: in vivo, Matricaria inodora; details: Tripleurospermum inodorum, 504 h
Summary of the method: as §1

PHBPU [7] = assay: Pre-emergence herbicidal action against PHBPU; type: in vivo, Pharbitis purpurea; details: Ipomoea purpurea, 504 h, dosage 80 g/ha
Summary of the method: as §1

POLCO = assay: Pre-emergence herbicidal action against POLCO; type: in vivo, Polygonum convolvulus; details: Fallopia convolvulus, 504 h, dosage 80 g/ha
Summary of the method: as §1

SETVI [8] = assay: Pre-emergence herbicidal action against SETVI; type: in vivo, Setaria viridis; details: Setaria viridis, 504 h, dosage 80 g/ha
Summary of the method: as §1

STEME [9] = assay: Pre-emergence herbicidal action against STEME; type: in vivo, Stellaria media; details: Stellaria media, 504 h
Summary of the method: as §1

VERPE [10] = assay: Pre-emergence herbicidal action against VERPE; type: in vivo, Veronica persica; details: Veronica persica, 504 h, dosage 80 g/ha
Summary of the method: as §1

VIOTR [11] = assay: Pre-emergence herbicidal action against VIOTR; type: in vivo, Viola tricolor; details: Viola tricolor, 504 h
Summary of the method: as §1

DIGSA [12] = assay: Pre-emergence herbicidal action against DIGSA; type: in vivo, Digitaria sanguinalis; details: Digitaria sanguinalis, 504 h
Summary of the method: as §1

ABUTH [13] = assay: Post-emergence herbicidal action against ABUTH; type: in vivo, Abutilon theophrasti; details: Abutilon theophrasti, 504 h, visual assessment about 3 weeks after treatment vs untreated controls
Summary of the method: (§2)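 Herbicidal effect was scored visually in percent after about 3 weeks in the greenhouse. Plants had been raised in sandy loam and treated post-emergence at the one-leaf stage with formulated compound at 600 to 800 l/ha water plus 0.2% wetting agent.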

ALOMY [14] = assay: Post-emergence herbicidal action against ALOMY; type: in vivo, Alopecurus myosuroides; details: Alopecurus myosuroides, 504 h, dosage 20 g/ha, visual assessment about 3 weeks after treatment vs untreated controls
Summary of the method: as §2

AMARE [15] = assay: Post-emergence herbicidal action against AMARE; type: in vivo, Amaranthus retroflexus; details: Amaranthus retroflexus, 504 h, 20 g/ha, visual assessment about 3 weeks after treatment, 100% = plants have died, 0% = like control plants
Summary of the method: as §2

AVEFA [16] = assay: Post-emergence herbicidal action against AVEFA; type: in vivo, Avena fatua; details: Avena fatua, 504 h, 20 g/ha, visual assessment about 3 weeks after treatment, 100% = plants have died, 0% = like control plants
Summary of the method: as §2

ECHCG [17] = assay: Post-emergence herbicidal action against ECHCG; type: in vivo, Echinochloa crus-galli; details: Echinochloa crus-galli, 504 h
Summary of the method: as §2

MATIN [18] = assay: Post-emergence herbicidal action against MATIN; type: in vivo, Matricaria inodora; details: Tripleurospermum inodorum, 504 h, dosage 20 g/ha
Summary of the method: as §2

PHBPU [19] = assay: Post-emergence herbicidal action against PHBPU; type: in vivo, Pharbitis purpurea; details: Ipomoea purpurea, 504 h
Summary of the method: as §2

SETVI [20] = assay: Post-emergence herbicidal action against SETVI; type: in vivo, Setaria viridis; details: Setaria viridis, 504 h, dosage 20 g/ha
Summary of the method: as §2

STEME [21] = assay: Post-emergence herbicidal action against STEME; type: in vivo, Stellaria media; details: Stellaria media, 504 h, 20 g/ha
Summary of the method: as §2

VERPE [22] = assay: Post-emergence herbicidal action against VERPE; type: in vivo, Veronica persica; details: Veronica persica, 504 h, 20 g/ha
Summary of the method: as §2

VIOTR [23] = assay: Post-emergence herbicidal action against VIOTR; type: in vivo, Viola tricolor; details: Viola tricolor, 504 h
Summary of the method: as §2

DIGSA [24] = assay: Post-emergence herbicidal action against DIGSA; type: in vivo, Digitaria sanguinalis; details: Digitaria sanguinalis, 504 h
Summary of the method: as §2

## Cc1c(C(=O)Nc2nnnn2C)ccc(C(F)F)c1C(=O)NC1CC1 [Example 1-46]
ABUTH [1]; 80 g/ha, scored visually after 3 weeks vs untreated controls (100% = plants have died, 0% = like control plants)
  pest or weed control at 80 g/ha: 100%
ABUTH [1]; dosage 20 g/ha, scored visually after 3 weeks vs untreated controls, 100% = plants have died, 0% = like control plants, read-out: Pre-emergence action against ABUTH (herbicidal activity in percent)
  pest or weed control at 20 g/ha: 90%
ALOMY [2]
  pest or weed control at 80 g/ha: 90%
AMARE [3]; 20 g/ha
  pest or weed control at 20 g/ha: 100%
AMARE [3]; 80 g/ha
  pest or weed control at 80 g/ha: 100%
AVEFA [4]
  pest or weed control at 80 g/ha: 100%
ECHCG [5]
  pest or weed control at 80 g/ha: 80%
LOLRI
  pest or weed control at 80 g/ha: 90%
MATIN [6]; dosage 20 g/ha
  pest or weed control at 20 g/ha: 90%
MATIN [6]; dosage 80 g/ha
  pest or weed control at 80 g/ha: 100%
PHBPU [7]
  pest or weed control at 80 g/ha: 80%
POLCO
  pest or weed control at 80 g/ha: 80%
SETVI [8]
  pest or weed control at 80 g/ha: 100%
STEME [9]; dosage 20 g/ha
  pest or weed control at 20 g/ha: 90%
STEME [9]; dosage 80 g/ha
  pest or weed control at 80 g/ha: 100%
VERPE [10]
  pest or weed control at 80 g/ha: 90%
VIOTR [11]; dosage 20 g/ha
  pest or weed control at 20 g/ha: 90%
VIOTR [11]; dosage 80 g/ha
  pest or weed control at 80 g/ha: 100%
DIGSA [12]; dosage 20 g/ha
  pest or weed control at 20 g/ha: 90%
DIGSA [12]; dosage 80 g/ha
  pest or weed control at 80 g/ha: 100%
ABUTH [13]; dosage 5 g/ha
  pest or weed control at 5 g/ha: 90%
ABUTH [13]; dosage 20 g/ha
  pest or weed control at 20 g/ha: 90%
ALOMY [14]
  pest or weed control at 20 g/ha: 90%
AMARE [15]
  pest or weed control at 20 g/ha: 100%
AVEFA [16]
  pest or weed control at 20 g/ha: 80%
ECHCG [17]; dosage 5 g/ha
  pest or weed control at 5 g/ha: 80%
ECHCG [17]; dosage 20 g/ha
  pest or weed control at 20 g/ha: 80%
MATIN [18]
  pest or weed control at 20 g/ha: 80%
PHBPU [19]; dosage 5 g/ha
  pest or weed control at 5 g/ha: 80%
PHBPU [19]; dosage 20 g/ha
  pest or weed control at 20 g/ha: 80%
SETVI [20]
  pest or weed control at 20 g/ha: 80%
STEME [21]
  pest or weed control at 20 g/ha: 80%
VERPE [22]
  pest or weed control at 20 g/ha: 90%
VIOTR [23]; 5 g/ha
  pest or weed control at 5 g/ha: 80%
VIOTR [23]; 20 g/ha
  pest or weed control at 20 g/ha: 80%
DIGSA [24]; 5 g/ha
  pest or weed control at 5 g/ha: 80%
DIGSA [24]; 20 g/ha
  pest or weed control at 20 g/ha: 80%
